pEC50: −log10 of the molar value.

These results are taken from patent US20230147683A1, “TREATMENT” (UNION Therapeutics A/S, priority 2020, published 2023).

For one data set, the system named is all targeted strains. Put plainly: Minimum Inhibitory Concentration (MIC) assay, all strains. The following applies: read-out: MIC against all targeted strains.
Another data set addresses T1, TMEM16A (Homo sapiens, UniProt Q5XXA6).
T1 sequence (Q5XXA6 1-986): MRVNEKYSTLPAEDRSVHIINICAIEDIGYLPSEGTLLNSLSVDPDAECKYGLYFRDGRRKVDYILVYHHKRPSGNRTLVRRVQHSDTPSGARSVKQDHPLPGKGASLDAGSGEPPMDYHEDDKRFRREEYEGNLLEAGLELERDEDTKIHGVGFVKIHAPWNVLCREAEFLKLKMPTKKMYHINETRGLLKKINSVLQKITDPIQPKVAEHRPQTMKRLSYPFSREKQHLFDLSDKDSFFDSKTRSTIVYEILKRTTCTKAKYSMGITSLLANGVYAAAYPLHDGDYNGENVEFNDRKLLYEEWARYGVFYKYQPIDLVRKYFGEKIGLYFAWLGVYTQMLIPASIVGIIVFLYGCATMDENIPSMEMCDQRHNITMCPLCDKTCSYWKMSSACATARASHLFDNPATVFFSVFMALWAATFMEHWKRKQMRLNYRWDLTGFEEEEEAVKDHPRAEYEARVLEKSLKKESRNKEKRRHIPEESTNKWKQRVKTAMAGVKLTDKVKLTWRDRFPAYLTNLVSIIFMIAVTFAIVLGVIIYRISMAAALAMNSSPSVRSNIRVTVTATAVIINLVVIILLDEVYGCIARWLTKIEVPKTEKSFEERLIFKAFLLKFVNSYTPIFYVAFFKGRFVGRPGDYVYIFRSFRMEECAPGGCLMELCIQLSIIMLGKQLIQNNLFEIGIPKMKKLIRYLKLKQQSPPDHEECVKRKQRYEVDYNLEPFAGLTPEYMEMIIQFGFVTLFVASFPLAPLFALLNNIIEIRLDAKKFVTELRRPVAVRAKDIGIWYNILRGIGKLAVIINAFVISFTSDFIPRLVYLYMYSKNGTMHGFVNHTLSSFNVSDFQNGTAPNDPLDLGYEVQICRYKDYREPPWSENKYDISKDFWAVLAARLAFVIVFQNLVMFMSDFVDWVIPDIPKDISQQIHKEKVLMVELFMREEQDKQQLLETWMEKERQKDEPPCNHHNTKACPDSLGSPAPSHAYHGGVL
As to conditions: cited from earlier work.

For data set [1] the following is noted: asthmatic mice, niclosamide in corn oil, I.P. injection; cited from earlier work.
For data set [2] the following is noted: 2 g/day oral dose; IC90 against SARS-CoV-2.
In another data set the test system is SARS-CoV. The following applies: cited from earlier work.
A further data set has as its target T2, TMEM16F (Homo sapiens, UniProt Q4KMQ2).
T2 sequence (Q4KMQ2 1-910): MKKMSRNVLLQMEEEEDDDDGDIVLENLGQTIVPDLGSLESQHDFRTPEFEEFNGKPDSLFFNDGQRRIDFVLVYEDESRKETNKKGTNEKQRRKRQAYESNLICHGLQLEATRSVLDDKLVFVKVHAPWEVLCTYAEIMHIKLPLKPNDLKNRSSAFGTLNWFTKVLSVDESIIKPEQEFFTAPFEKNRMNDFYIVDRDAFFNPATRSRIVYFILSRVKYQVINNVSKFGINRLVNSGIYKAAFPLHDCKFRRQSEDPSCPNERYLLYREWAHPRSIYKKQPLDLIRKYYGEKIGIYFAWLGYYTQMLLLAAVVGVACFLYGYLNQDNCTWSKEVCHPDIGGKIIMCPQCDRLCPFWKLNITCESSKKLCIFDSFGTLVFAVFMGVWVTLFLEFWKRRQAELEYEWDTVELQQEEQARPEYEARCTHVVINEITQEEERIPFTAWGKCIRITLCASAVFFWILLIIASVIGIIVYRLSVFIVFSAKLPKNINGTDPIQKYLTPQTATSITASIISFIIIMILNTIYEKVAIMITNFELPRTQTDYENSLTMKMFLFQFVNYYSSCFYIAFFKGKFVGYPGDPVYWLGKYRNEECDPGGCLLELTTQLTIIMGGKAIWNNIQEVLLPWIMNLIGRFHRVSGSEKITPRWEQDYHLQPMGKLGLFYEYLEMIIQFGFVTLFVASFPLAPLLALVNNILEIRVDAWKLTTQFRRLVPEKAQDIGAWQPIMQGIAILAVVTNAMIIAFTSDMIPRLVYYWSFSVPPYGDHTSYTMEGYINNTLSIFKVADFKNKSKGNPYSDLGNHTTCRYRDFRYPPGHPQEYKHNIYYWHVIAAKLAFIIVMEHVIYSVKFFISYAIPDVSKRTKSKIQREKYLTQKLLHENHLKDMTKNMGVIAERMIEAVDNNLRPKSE
The following applies: cited from earlier work.

Data set [3] in a line: in vitro. As to conditions: African green monkey.
A short description of another data set: clinical. The following applies: human, in vivo.
In the next data set the test system is SARS-CoV-2. Put plainly: Inhibition of SARS-CoV-2 replication in Caco-2 cells. The format is cell-based. The following applies: Severe acute respiratory syndrome coronavirus 2.
The nature of data set [4]: in vitro. The following applies: human.
The conditions of data set [5]: human, in vivo.
The subject of data set [6] is SARS-CoV-2 B 1.351 strain. Put plainly: microbe, parasite or virus in culture. The data set is classed as cell-based. The following applies: Severe acute respiratory syndrome coronavirus 2; VeroE6 TMPRSS2 cells; read-out: EC50 against B 1.351 strain.
In data set [7] the test system is SARS-CoV-2 B.1.1.7 strain. Briefly: microbe, parasite or virus in culture. The data set is classed as cell-based. As to conditions: Severe acute respiratory syndrome coronavirus 2; VeroE6 TMPRSS2 cells; read-out: EC50 against B.1.1.7 strain.
The test system of the next data set is SARS-CoV-2 D614 strain. Put plainly: microbe, parasite or virus in culture. The format is cell-based. As to conditions: Severe acute respiratory syndrome coronavirus 2; VeroE6 TMPRSS2 cells; read-out: EC50 against D614 strain.

As for `O=C(Nc1ccc([N+](=O)[O-])cc1Cl)c1cc(Cl)ccc1O` [niclosamide, 5-chloro-N-(2-chloro-4-nitrophenyl)-2-hydroxybenzamide], the MIC (in general, the lowest concentration found to suppress growth) with all targeted strains is no more than 0.5 µg/mL. Further, on TMEM16A, the “inhibition of TMEM16A” value is reported as “potent inhibitor”. In addition, the “effect on mucus production and secretion and bronchoconstriction” value in data set [1] was “reduced mucus production and secretion, as well as bronchoconstriction”. For the same molecule, the “efficacy margin, mean systemic exposure of human oral dose to IC90” value in data set [2] is reported as 8 fold. Besides, in the data set with SARS-CoV, the “concentration at which viral antigen synthesis was totally abolished” value is 1.56 μm and the “concentration suppressing cytopathic effect (CPE), as low as” value was 1 μm. On TMEM16F, the “inhibition of TMEM16F” value was “potent inhibitor”.

On to `O=C(Nc1ccc([N+](=O)[O-])cc1Cl)c1cc(Cl)ccc1O` [niclosamide ethanolamine], for which the CC50 in “in vitro [3]” and in “in vitro [4]” was greater than 10000 nM in each case. Also, the AUC(0-t) (in general, the area under the concentration-time curve up to a stated or last time point) in the data set “clinical” was found to be 509 ng·h/mL. In addition, the concentration in “clinical” (maximum plasma concentration (Cmax), mean) peaked (Cmax) at 239 ng/mL. Further, the pEC50 (as a rule, the negative decadic logarithm of the EC50, by convention in mol/L) in the data set with SARS-CoV-2 is 7.10; in data set [6], 7.15; in data set [7], 7.10; in the data set with SARS-CoV-2 D614 strain it was 6.89. Besides, in data set [5], the “peak concentrations in blood (range)” value lay in the range of 29 to 506 ng/mL.
